According to patent US12495798B2, “Nicotinamide compound and herbicidal composition comprising compound” (KOREA RESEARCH INSTITUTE OF CHEMICAL TECHNOLOGY, priority 2019, dated 2025):

Legend:
Format in all cases: in vivo
sorghum [1] = test: Herbicidal activity test against upland field weeds (soil treatment test); design: key to Soil treatment herbicidal activity, Sorghum: 0 (no control); 100 (complete control); details: scale 0 (no control) to 100 (complete control)
Method in brief: (§1)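 Pre-emergence soil surface spray, day after sowing, into sandy loam pots with fertilizer; compounds at 50 or 75 g a.i./ha in 50% acetone, 0.1% Tween-20. Greenhouse at 30±5 °C, 14/10 h light/dark; visual control rated 0–100 against untreated after 14 days (21 if needed).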

bindweed [2] = test: as above; design: key to Soil treatment herbicidal activity, Bindweed: 0 (no control); 100 (complete control); details: scale 0 (no control) to 100 (complete control)
Method in brief: as §1

cocklebur [3] = test: Herbicidal activity test against upland field weeds (foliar treatment test); details: Xanthium strumarium, scale 0-100; for pest or weed control at 50 g/ha: 50 g ai/ha
Method in brief: (§2)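 Greenhouse-grown plants (30±5 °C, 14/10 h light/dark) foliar hand-sprayed with compound in 50% acetone, 0.1% Tween-20 at 50 or 75 g a.i./ha. Control visually scored 0 (none) to 100 (complete) versus untreated after 14 days, or 21 days if needed.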

quack grass [4] = test: Herbicidal activity test against upland field weeds (soil treatment test); design: key to Soil treatment herbicidal activity, quack grass: 0 (no control); 100 (complete control); details: scale 0 (no control) to 100 (complete control)
Method in brief: as §1

sorghum [5] = test: Herbicidal activity test against upland field weeds (foliar treatment test); design: key to Foliar treatment herbicidal activity, Sorghum: 0 (no control); 100 (complete control); details: scale 0-100; for Foliar treatment herbicidal activity, Sorghum: 50 g ai/ha
Method in brief: as §2

black nightshade [6] = test: Herbicidal activity test against upland field weeds (soil treatment test); design: key to Soil treatment herbicidal activity, black nightshade: 0 (no control); 100 (complete control); details: scale 0 (no control) to 100 (complete control); for Soil treatment herbicidal activity, black nightshade: 50 g ai/ha
Method in brief: as §1

indian jointvetch [7] = test: as above; design: key to Soil treatment herbicidal activity, Indian jointvetch: 0 (no control); 100 (complete control); details: scale 0 (no control) to 100 (complete control)
Method in brief: as §1

black nightshade [8] = test: Herbicidal activity test against upland field weeds (foliar treatment test); design: key to Foliar treatment herbicidal activity, black nightshade: 0 (no control); 100 (complete control); details: scale 0-100; for Foliar treatment herbicidal activity, black nightshade: 50 g ai/ha
Method in brief: as §2

crabgrass [9] = test: as above; details: Digitaria sanguinalis, scale 0-100; for pest or weed control at 50 g/ha: 50 g ai/ha
Method in brief: as §2

cocklebur [10] = test: Herbicidal activity test against upland field weeds (soil treatment test); design: key to Soil treatment herbicidal activity, Cocklebur: 0 (no control); 100 (complete control); details: scale 0 (no control) to 100 (complete control); for pest or weed control at 50 g/ha: Xanthium strumarium, 50 g ai/ha
Method in brief: as §1

bindweed [11] = test: Herbicidal activity test against upland field weeds (foliar treatment test); design: key to Foliar treatment herbicidal activity, Bindweed: 0 (no control); 100 (complete control); details: scale 0-100
Method in brief: as §2

fall panicum [12] = test: Herbicidal activity test against upland field weeds (soil treatment test); details: Panicum dichotomiflorum, scale 0 (no control) to 100 (complete control); for pest or weed control at 50 g/ha: 50 g ai/ha
Method in brief: as §1

barnyard grass [13] = test: as above; design: key to Soil treatment herbicidal activity, barnyard grass: 0 (no control); 100 (complete control); details: scale 0 (no control) to 100 (complete control); for Soil treatment herbicidal activity, barnyard grass: 50 g ai/ha
Method in brief: as §1

indian jointvetch [14] = test: Herbicidal activity test against upland field weeds (foliar treatment test); design: key to Foliar treatment herbicidal activity, Indian jointvetch: 0 (no control); 100 (complete control); details: scale 0-100
Method in brief: as §2

velvetleaf [15] = test: as above; details: Abutilon theophrasti, scale 0-100, read-out: Foliar treatment herbicidal activity, velvet leaf; for pest or weed control at 50 g/ha: 50 g ai/ha
Method in brief: as §2

barnyard grass [16] = test: as above; design: key to Foliar treatment herbicidal activity, barnyard grass: 0 (no control); 100 (complete control); details: scale 0-100
Method in brief: as §2

quack grass [17] = test: as above; design: key to Foliar treatment herbicidal activity, quack grass: 0 (no control); 100 (complete control); details: scale 0-100
Method in brief: as §2

crabgrass [18] = test: Herbicidal activity test against upland field weeds (soil treatment test); details: Digitaria sanguinalis, scale 0 (no control) to 100 (complete control); for pest or weed control at 50 g/ha: 50 g ai/ha
Method in brief: as §1

fall panicum [19] = test: Herbicidal activity test against upland field weeds (foliar treatment test); details: Panicum dichotomiflorum, scale 0-100; for pest or weed control at 50 g/ha: 50 g ai/ha
Method in brief: as §2

velvetleaf [20] = test: Herbicidal activity test against upland field weeds (soil treatment test); design: key to Soil treatment herbicidal activity, velvet leaf: 0 (no control); 100 (complete control); details: scale 0 (no control) to 100 (complete control)
Method in brief: as §1

[21] = Echinochloa crus-galli, 75 g ai/ha

## Cc1cc(C(=O)Nc2nnnn2C)c(OCc2nnnn2C)nc1C(F)(F)F [Compound No. 1-17, 5-methyl-N-(1-methyl-1H-tetrazol-5-yl)-2-((1-methyl-1H-tetrazol-5-yl)methoxy)-6-(trifluoromethyl)nicotinamide]
Sorghum [1]; 50 g ai/ha
  Soil treatment herbicidal activity, Sorghum: 0
Bindweed [2]; 50 g ai/ha
  pest or weed control at 50 g/ha: 20%
Cocklebur [3]
  pest or weed control at 50 g/ha: 40%
Quack grass [4]; 50 g ai/ha
  Soil treatment herbicidal activity, quack grass: 0
Sorghum [5]
  Foliar treatment herbicidal activity, Sorghum: 0
Black nightshade [6]
  Soil treatment herbicidal activity, black nightshade: 100
Indian jointvetch [7]; 50 g ai/ha
  Soil treatment herbicidal activity, Indian jointvetch: 0
Black nightshade [8]
  Foliar treatment herbicidal activity, black nightshade: 100
Crabgrass [9]
  pest or weed control at 50 g/ha: 20%
Cocklebur [10]
  pest or weed control at 50 g/ha: 40%
Bindweed [11]; 50 g ai/ha
  pest or weed control at 50 g/ha: 20%
Fall panicum [12]
  pest or weed control at 50 g/ha: 20%
Barnyard grass [13]
  Soil treatment herbicidal activity, barnyard grass: 0
Indian jointvetch [14]; 50 g ai/ha
  Foliar treatment herbicidal activity, Indian jointvetch: 0
Velvetleaf [15]
  pest or weed control at 50 g/ha: 30%
Barnyard grass [16]; 50 g ai/ha
  Foliar treatment herbicidal activity, barnyard grass: 0
Quack grass [17]; 50 g ai/ha
  Foliar treatment herbicidal activity, quack grass: 0
Crabgrass [18]
  pest or weed control at 50 g/ha: 20%
Fall panicum [19]
  pest or weed control at 50 g/ha: 20%
Velvetleaf [20]; Abutilon theophrasti, 50 g ai/ha, read-out: Soil treatment herbicidal activity, velvet leaf
  pest or weed control at 50 g/ha: 30%

## CN(CCOCc1nnn(C)n1)c1nc(C(F)(F)F)ccc1C(=O)Nc1nnnn1C [Compound No. 2-34, 2-(methyl(2-((2-methyl-2H-tetrazol-5-yl)methoxy)ethyl)amino)-N-(1-methyl-1H-tetrazol-5-yl)-6-(trifluoromethyl)nicotinamide]
Sorghum [1]; 75 g ai/ha
  Soil treatment herbicidal activity, Sorghum: 0
Bindweed [2]; 75 g ai/ha
  Soil treatment herbicidal activity, Bindweed: 0
Cocklebur [3]; 75 g ai/ha
  pest or weed control at 75 g/ha: 40%
Quack grass [4]; 75 g ai/ha
  Soil treatment herbicidal activity, quack grass: 0
Sorghum [5]; Sorghum, 75 g ai/ha
  plant injury at 75 g/ha: 20%
Black nightshade [6]; Solanum nigrum, 75 g ai/ha
  pest or weed control at 75 g/ha: 95%
Indian jointvetch [7]; 75 g ai/ha
  pest or weed control at 75 g/ha: 70%
Black nightshade [8]; Solanum nigrum, 75 g ai/ha
  pest or weed control at 75 g/ha: 95%
Crabgrass [9]; 75 g ai/ha
  pest or weed control at 75 g/ha: 60%
Cocklebur [10]; 75 g ai/ha
  Soil treatment herbicidal activity, Cocklebur: 0
Bindweed [11]; 75 g ai/ha
  pest or weed control at 75 g/ha: 50%
Fall panicum [12]; 75 g ai/ha
  pest or weed control at 75 g/ha: 80%
Barnyard grass [13]; [21]
  pest or weed control at 75 g/ha: 60%
Indian jointvetch [14]; 75 g ai/ha
  pest or weed control at 75 g/ha: 60%
Velvetleaf [15]; 75 g ai/ha
  pest or weed control at 75 g/ha: 50%
Barnyard grass [16]; [21]
  pest or weed control at 75 g/ha: 70%
Quack grass [17]; 75 g ai/ha
  Foliar treatment herbicidal activity, quack grass: 0
Crabgrass [18]; 75 g ai/ha
  pest or weed control at 75 g/ha: 70%
Fall panicum [19]; 75 g ai/ha
  pest or weed control at 75 g/ha: 40%
Velvetleaf [20]; Abutilon theophrasti, 75 g ai/ha, read-out: Soil treatment herbicidal activity, velvet leaf
  pest or weed control at 75 g/ha: 60%

## CCON(Cc1nnn(C)n1)c1nc(C(F)(F)F)ccc1C(=O)Nc1nnnn1C [Compound No. 2-31, 2-(ethoxy((2-methyl-2H-tetrazol-5-yl)methyl)amino)-N-(1-methyl-1H-tetrazol-5-yl)-6-(trifluoromethyl)nicotinamide]
Sorghum [1]; 50 g ai/ha
  Soil treatment herbicidal activity, Sorghum: 0
Bindweed [2]; 50 g ai/ha
  Soil treatment herbicidal activity, Bindweed: 0
Cocklebur [3]
  pest or weed control at 50 g/ha: 70%
Quack grass [4]; 50 g ai/ha
  Soil treatment herbicidal activity, quack grass: 0
Sorghum [5]
  Foliar treatment herbicidal activity, Sorghum: 0
Black nightshade [6]
  Soil treatment herbicidal activity, black nightshade: 100
Indian jointvetch [7]; 50 g ai/ha
  pest or weed control at 50 g/ha: 98%
Black nightshade [8]
  Foliar treatment herbicidal activity, black nightshade: 100
Crabgrass [9]
  pest or weed control at 50 g/ha: 60%
Cocklebur [10]
  pest or weed control at 50 g/ha: 30%
Bindweed [11]; 50 g ai/ha
  Foliar treatment herbicidal activity, Bindweed: 0
Fall panicum [12]
  pest or weed control at 50 g/ha: 95%
Barnyard grass [13]
  Soil treatment herbicidal activity, barnyard grass: 100
Indian jointvetch [14]; 50 g ai/ha
  pest or weed control at 50 g/ha: 40%
Velvetleaf [15]
  pest or weed control at 50 g/ha: 70%
Barnyard grass [16]; Echinochloa crus-galli, 50 g ai/ha
  pest or weed control at 50 g/ha: 90%
Quack grass [17]; 50 g ai/ha
  Foliar treatment herbicidal activity, quack grass: 0
Crabgrass [18]
  pest or weed control at 50 g/ha: 98%
Fall panicum [19]
  pest or weed control at 50 g/ha: 40%
Velvetleaf [20]; 50 g ai/ha
  Soil treatment herbicidal activity, velvet leaf: 100
